In the supplement of paper PMC6315032:

Columns and labels:
Assay in all cases: apparent dissociation constant (pKDapp, Kinobeads competition, Cheng-Prusoff corrected) (-log10 M); higher = tighter binding
[1] = biological target: IRAK4 (UniProt Q9NWZ3); conditions: affinity matrix / lysate: Kinobeads, mixed HEK293/K-562/placenta lysate
[2] = biological target: BMPR2 (UniProt Q13873); conditions: affinity matrix / lysate: Kinobeads, mixed HEK293/K-562/placenta lysate
[3] = biological target: LIMK2 (UniProt P53671); conditions: affinity matrix / lysate: Kinobeads, mixed HEK293/K-562/placenta lysate
[4] = biological target: PIP4K2B (UniProt P78356); conditions: affinity matrix / lysate: Kinobeads, mixed HEK293/K-562/placenta lysate
[5] = biological target: LIMK1 (UniProt P53667); conditions: affinity matrix / lysate: Kinobeads, mixed HEK293/K-562/placenta lysate
[6] = biological target: PKN1 (UniProt Q16512); conditions: affinity matrix / lysate: Kinobeads, mixed HEK293/K-562/placenta lysate
[7] = biological target: EIF2AK1 (UniProt Q9BQI3); conditions: affinity matrix / lysate: Kinobeads, mixed HEK293/K-562/placenta lysate
[8] = biological target: SRC (UniProt P12931); conditions: affinity matrix / lysate: Kinobeads, mixed HEK293/K-562/placenta lysate
[9] = biological target: PRKCZ (UniProt Q05513); conditions: affinity matrix / lysate: Kinobeads, mixed HEK293/K-562/placenta lysate
[10] = biological target: PIP5K3 (UniProt Q9Y2I7); conditions: affinity matrix / lysate: Kinobeads, mixed HEK293/K-562/placenta lysate
[11] = biological target: MAST3 (UniProt O60307); conditions: affinity matrix / lysate: Kinobeads, mixed HEK293/K-562/placenta lysate
[12] = biological target: STK11 (UniProt Q15831); conditions: affinity matrix / lysate: Kinobeads, mixed HEK293/K-562/placenta lysate
[13] = biological target: CDKL5 (UniProt O76039); conditions: affinity matrix / lysate: Kinobeads, mixed HEK293/K-562/placenta lysate
[14] = biological target: TNIK (UniProt Q9UKE5); conditions: affinity matrix / lysate: Kinobeads, mixed HEK293/K-562/placenta lysate
[15] = biological target: ULK3 (UniProt Q6PHR2); conditions: affinity matrix / lysate: Kinobeads, mixed HEK293/K-562/placenta lysate
[16] = biological target: TP53RK (UniProt Q96S44); conditions: affinity matrix / lysate: Kinobeads, mixed HEK293/K-562/placenta lysate
[17] = biological target: MST1R (UniProt Q04912); conditions: affinity matrix / lysate: Kinobeads, mixed HEK293/K-562/placenta lysate
[18] = biological target: MAP3K3 (UniProt Q99759); conditions: affinity matrix / lysate: Kinobeads, mixed HEK293/K-562/placenta lysate
[19] = biological target: PTK2 (UniProt Q05397); conditions: affinity matrix / lysate: Kinobeads, mixed HEK293/K-562/placenta lysate
[20] = biological target: CAMK2B (UniProt Q13554); conditions: affinity matrix / lysate: Kinobeads, mixed HEK293/K-562/placenta lysate
[21] = biological target: ARAF (UniProt P10398); conditions: affinity matrix / lysate: Kinobeads, mixed HEK293/K-562/placenta lysate
[22] = biological target: MAP4K5 (UniProt Q9Y4K4); conditions: affinity matrix / lysate: Kinobeads, mixed HEK293/K-562/placenta lysate
[23] = biological target: FGFR3 (UniProt P22607); conditions: affinity matrix / lysate: Kinobeads, mixed HEK293/K-562/placenta lysate
[24] = biological target: CSNK1A1 (UniProt P48729); conditions: affinity matrix / lysate: Kinobeads, mixed HEK293/K-562/placenta lysate
[25] = biological target: KIT (UniProt P10721); conditions: affinity matrix / lysate: Kinobeads, mixed HEK293/K-562/placenta lysate
[26] = biological target: OXSR1 (UniProt O95747); conditions: affinity matrix / lysate: Kinobeads, mixed HEK293/K-562/placenta lysate
[27] = biological target: ADCK1 (UniProt Q86TW2); conditions: affinity matrix / lysate: Kinobeads, mixed HEK293/K-562/placenta lysate
[28] = biological target: MARK4 (UniProt Q96L34); conditions: affinity matrix / lysate: Kinobeads, mixed HEK293/K-562/placenta lysate
[29] = biological target: PCTK2 (UniProt Q00537); conditions: affinity matrix / lysate: Kinobeads, mixed HEK293/K-562/placenta lysate
[30] = biological target: IGF1R (UniProt P08069); conditions: affinity matrix / lysate: Kinobeads, mixed HEK293/K-562/placenta lysate
[31] = biological target: CDK7 (UniProt P50613); conditions: affinity matrix / lysate: Kinobeads, mixed HEK293/K-562/placenta lysate
[32] = biological target: PIK3CB (UniProt P42338); conditions: affinity matrix / lysate: Lipid Kinobeads, mixed HeLa/Jurkat/K-562 lysate
[33] = biological target: EPHB1 (UniProt P54762); conditions: affinity matrix / lysate: Kinobeads, mixed HEK293/K-562/placenta lysate

Measured: apparent dissociation constant (-log10 M)

Chain of MAP4K5 (Q9Y4K4 whole entry, looked up): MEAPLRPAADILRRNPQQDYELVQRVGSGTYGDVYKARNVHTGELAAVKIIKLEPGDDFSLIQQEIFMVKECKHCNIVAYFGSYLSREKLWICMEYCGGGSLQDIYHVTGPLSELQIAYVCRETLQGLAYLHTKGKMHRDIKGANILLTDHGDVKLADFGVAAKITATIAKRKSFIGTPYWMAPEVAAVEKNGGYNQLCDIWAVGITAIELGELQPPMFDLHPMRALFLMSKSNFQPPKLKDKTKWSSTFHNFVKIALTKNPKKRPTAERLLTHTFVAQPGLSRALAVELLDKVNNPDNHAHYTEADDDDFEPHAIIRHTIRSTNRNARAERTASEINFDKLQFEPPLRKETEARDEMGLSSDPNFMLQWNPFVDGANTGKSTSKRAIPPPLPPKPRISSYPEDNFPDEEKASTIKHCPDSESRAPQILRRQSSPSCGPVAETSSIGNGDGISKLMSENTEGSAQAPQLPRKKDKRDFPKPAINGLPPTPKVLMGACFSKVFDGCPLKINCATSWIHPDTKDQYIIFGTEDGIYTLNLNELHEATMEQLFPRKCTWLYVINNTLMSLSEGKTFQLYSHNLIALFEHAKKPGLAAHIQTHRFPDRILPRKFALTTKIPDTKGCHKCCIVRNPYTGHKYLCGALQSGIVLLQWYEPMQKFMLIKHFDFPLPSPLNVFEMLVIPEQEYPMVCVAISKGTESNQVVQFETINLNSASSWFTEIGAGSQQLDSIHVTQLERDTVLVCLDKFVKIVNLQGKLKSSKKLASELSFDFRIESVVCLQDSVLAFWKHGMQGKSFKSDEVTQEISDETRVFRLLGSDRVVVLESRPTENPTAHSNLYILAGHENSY
Chain of MST1R (Q04912 whole entry): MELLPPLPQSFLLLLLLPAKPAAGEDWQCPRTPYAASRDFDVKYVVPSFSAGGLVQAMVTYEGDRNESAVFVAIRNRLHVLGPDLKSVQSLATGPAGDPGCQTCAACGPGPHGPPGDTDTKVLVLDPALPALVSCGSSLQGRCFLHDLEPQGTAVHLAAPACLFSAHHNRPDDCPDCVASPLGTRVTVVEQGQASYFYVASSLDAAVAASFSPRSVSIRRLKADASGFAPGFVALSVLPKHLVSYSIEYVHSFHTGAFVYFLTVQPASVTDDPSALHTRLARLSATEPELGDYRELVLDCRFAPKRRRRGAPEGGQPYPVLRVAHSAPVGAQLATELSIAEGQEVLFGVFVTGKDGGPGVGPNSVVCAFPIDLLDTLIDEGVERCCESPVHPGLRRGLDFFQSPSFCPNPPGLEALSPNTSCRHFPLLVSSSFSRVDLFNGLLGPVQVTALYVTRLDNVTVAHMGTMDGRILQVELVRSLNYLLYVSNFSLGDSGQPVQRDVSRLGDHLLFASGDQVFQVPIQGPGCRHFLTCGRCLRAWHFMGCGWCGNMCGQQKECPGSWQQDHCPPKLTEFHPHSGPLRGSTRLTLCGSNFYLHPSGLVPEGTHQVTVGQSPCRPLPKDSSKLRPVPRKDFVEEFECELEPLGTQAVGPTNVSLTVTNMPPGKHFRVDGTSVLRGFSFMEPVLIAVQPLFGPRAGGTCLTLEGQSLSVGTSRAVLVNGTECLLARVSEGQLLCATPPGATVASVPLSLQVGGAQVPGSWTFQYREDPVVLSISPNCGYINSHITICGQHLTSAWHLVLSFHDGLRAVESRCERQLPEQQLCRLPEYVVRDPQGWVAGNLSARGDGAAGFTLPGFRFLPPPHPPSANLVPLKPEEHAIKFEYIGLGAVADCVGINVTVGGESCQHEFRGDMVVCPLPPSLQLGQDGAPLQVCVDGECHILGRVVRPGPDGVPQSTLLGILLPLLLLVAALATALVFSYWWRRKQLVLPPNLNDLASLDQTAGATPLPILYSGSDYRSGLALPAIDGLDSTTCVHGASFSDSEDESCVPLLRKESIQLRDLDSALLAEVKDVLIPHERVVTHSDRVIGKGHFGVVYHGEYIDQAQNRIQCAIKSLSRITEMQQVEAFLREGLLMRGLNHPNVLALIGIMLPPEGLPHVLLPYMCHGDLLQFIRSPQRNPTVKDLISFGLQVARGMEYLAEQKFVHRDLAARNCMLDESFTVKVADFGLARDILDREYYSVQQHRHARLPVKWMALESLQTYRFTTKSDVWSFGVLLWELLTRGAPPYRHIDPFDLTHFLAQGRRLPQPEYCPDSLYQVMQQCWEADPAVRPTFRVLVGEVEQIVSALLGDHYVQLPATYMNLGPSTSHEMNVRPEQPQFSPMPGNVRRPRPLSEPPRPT
Chain of CAMK2B (Q13554 whole entry): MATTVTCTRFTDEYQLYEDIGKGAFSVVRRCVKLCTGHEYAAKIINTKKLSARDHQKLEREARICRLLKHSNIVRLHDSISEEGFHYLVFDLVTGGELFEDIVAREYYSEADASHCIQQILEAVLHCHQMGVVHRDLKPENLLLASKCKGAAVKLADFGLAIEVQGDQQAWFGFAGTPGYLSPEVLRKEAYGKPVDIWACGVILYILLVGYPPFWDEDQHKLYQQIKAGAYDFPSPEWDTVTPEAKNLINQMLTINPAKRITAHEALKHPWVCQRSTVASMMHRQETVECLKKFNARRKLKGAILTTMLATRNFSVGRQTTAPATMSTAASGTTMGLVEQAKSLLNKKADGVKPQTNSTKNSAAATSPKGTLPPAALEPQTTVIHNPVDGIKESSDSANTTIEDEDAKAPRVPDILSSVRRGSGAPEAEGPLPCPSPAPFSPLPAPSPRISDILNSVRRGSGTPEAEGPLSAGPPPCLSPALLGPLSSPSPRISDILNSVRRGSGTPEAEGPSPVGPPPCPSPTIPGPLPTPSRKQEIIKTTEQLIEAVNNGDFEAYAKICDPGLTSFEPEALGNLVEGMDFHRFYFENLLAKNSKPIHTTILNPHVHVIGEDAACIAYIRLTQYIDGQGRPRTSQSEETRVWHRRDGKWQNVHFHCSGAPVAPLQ
Chain of TNIK (Q9UKE5 whole entry, looked up): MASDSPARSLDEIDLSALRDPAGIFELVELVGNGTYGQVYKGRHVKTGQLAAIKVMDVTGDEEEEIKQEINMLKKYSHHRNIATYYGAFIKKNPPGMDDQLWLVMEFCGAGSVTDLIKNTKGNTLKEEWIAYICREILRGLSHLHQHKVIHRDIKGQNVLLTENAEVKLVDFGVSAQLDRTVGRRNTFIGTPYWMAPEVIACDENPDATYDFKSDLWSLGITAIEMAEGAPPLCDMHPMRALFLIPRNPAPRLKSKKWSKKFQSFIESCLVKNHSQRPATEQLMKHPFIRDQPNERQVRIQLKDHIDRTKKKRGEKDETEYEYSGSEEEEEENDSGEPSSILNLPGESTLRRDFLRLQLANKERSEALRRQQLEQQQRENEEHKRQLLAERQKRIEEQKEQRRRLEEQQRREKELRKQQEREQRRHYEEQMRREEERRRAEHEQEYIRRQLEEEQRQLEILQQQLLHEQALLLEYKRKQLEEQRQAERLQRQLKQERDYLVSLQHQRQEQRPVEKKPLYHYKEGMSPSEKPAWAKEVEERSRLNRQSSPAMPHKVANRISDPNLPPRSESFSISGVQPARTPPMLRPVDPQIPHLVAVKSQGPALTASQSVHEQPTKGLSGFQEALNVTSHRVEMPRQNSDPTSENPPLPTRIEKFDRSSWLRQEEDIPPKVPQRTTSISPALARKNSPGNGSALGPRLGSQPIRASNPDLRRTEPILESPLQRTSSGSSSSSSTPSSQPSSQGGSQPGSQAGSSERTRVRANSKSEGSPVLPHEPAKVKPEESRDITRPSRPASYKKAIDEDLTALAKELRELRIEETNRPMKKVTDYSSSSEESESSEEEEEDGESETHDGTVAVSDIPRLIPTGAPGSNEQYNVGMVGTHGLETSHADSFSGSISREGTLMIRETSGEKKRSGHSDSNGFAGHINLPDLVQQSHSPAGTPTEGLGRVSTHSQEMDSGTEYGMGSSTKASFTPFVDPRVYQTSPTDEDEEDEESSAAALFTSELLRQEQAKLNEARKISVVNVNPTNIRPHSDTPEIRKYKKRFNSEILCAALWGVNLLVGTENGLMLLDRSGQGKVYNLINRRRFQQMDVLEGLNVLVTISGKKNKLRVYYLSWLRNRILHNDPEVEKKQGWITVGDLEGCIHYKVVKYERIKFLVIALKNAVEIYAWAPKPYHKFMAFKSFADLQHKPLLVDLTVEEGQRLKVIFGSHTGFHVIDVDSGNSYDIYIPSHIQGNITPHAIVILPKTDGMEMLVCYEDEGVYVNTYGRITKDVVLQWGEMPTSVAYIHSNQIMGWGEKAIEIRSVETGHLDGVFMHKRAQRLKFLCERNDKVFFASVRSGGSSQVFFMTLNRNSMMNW
Chain of LIMK2 (P53671 whole entry, looked up): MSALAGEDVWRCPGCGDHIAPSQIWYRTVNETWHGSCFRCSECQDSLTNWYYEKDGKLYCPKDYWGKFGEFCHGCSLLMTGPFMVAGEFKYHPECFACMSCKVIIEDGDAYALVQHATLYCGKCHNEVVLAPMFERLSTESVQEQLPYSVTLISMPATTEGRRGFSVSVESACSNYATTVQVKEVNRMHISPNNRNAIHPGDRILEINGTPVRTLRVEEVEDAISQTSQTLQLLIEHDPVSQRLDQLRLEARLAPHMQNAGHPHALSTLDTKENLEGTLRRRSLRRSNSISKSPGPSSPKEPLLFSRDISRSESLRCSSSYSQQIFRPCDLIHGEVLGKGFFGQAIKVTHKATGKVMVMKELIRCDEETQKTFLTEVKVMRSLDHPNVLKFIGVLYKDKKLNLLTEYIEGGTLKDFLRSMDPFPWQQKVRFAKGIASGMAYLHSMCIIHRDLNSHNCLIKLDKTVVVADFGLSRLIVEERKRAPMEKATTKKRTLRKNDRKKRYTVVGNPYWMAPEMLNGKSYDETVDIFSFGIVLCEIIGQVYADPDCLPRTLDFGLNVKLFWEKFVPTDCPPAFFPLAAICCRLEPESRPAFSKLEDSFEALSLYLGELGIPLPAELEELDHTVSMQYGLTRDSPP

COc1ccc(-c2ccc3c(N4CCOC[C@@H]4C)nc(N4CCOC[C@@H]4C)nc3n2)cc1CO [AZD8055]
< 6: all assays above

CCNC(=O)Nc1ccc(-c2nc(N3CCOC[C@@H]3C)c3c(n2)C(C)(C)S(=O)(=O)C3)cc1 [CZ415]
< 6: all assays above
